From paper PMC9370150, “UHPLC Enantiomer Resolution for the ɑ/β-Adrenoceptor Antagonist R/S-Carvedilol and Its Major Active Metabolites on Chiralpak IB N-5” (Molecules, 2022)
Like-named read-outs stand apart in the source and are kept apart here.

Experiments:
α1-adrenoreceptor = conditions: cited from earlier work
β-adrenoreceptor = conditions: cited from earlier work
[1] = parameters: method as in PMID 1980583; conditions: therapeutic dose; cited from earlier work
[2] = Enantiomer plasma concentrations in cardiovascular patients after oral 25 mg rac-CAR (UHPLC-UV on Chiralpak IB N-5); conditions: for concentration at 0.5 h / concentration at 1 h / concentration at 2 h / concentration at 4 h / concentration at 9 h / concentration at 12 h: human, plasma, po, 25 mg
Method: The developed method was applied to single plasma samples obtained from different patients after an oral dose administration of 25 mg rac-CAR under non-standardized conditions. Patients’ plasma was collected at different time intervals after drug administration and CAR and its metabolites were extracted according to the method in Section 4.7 after spiking with IS.
Blood samples obtained from patients were also collected in EDTA-containing tubes. Blood was kept cool and then centrifuged at 2000 g for 15 min. Following plasma separation, it was immediately transferred into clean polypropylene tubes. The samples were always kept at 2–8 °C while handling.
After collection, plasma was obtained and the samples stored frozen until analysis.

[3] = patient 3, sampling time 2.0 hr, oral 25 mg racemic CAR
[4] = patient 4, sampling time 4.0 hr, oral 25 mg racemic CAR
[5] = patient 5, sampling time 9.0 hr, oral 25 mg racemic CAR
[6] = patient 6, sampling time 12.0 hr, oral 25 mg racemic CAR
[7] = single enantiomers, read-out: Kd, α1-antagonistic activity
[8] = single enantiomers, read-out: Kd, β-adrenoreceptor antagonistic property

Row | SMILES | concentration at 0.5 h [2] | concentration at 1 h [2] | Plasma Concentration [2, 3] | Plasma Concentration [2, 4] | Plasma Concentration [2, 5] | Plasma Concentration [2, 6] | concentration at 2 h [2] | concentration at 4 h [2] | concentration at 9 h [2] | concentration at 12 h [2] | also measured
1 | COc1ccccc1OCCNCC(O)COc1cccc2[nH]c3ccccc3c12 (centres unmarked) [CAR, Carvedilol] | 41 ng/mL | 98.4 ng/mL |  |  |  |  |  |  |  |  | α1-adrenoceptor-antagonism eudismic ratio (α1-adrenoreceptor; parent CAR): approximately 1; Kd (α1-adrenoreceptor; racemate, read-out: apparent dissociation constant (Kd), α1-adrenoreceptor antagonist): 0.9 nM; β-adrenoceptor-antagonism eudismic ratio (β-adrenoreceptor; parent CAR): approximately 100; Kd (β-adrenoreceptor; racemate, read-out: Kd, nonselective β-adrenoreceptor antagonist): 11 nM; excreted unchanged into urine [1]: 2%; fraction of dose metabolized [1]: ~98%; plasma S/R ratios of CAR enantiomers ([2]; analyzed patient samples after 25 mg CAR racemate): ~1; Plasma concentration S/R ([2]; patient 1, sampling time 0.5 hr, oral 25 mg racemic CAR): 0.98; sum of the two enantiomers in plasma ([2]; patients investigated, 25 mg CAR racemate): ≤ 100 ng/mL
2 | COc1cc(O)ccc1OCCNC[C@@H](O)COc1cccc2[nH]c3ccccc3c12 [R-4′OHC] |  |  | 4.51 ng/mL | 4.98 ng/mL | 3.54 ng/mL | 1.96 ng/mL |  |  |  |  | 
3 | COc1ccc(O)cc1OCCNC[C@@H](O)COc1cccc2[nH]c3ccccc3c12 [R-5′OHC] |  |  | 8.20 ng/mL | 9.47 ng/mL | 6.09 ng/mL | 3.78 ng/mL |  |  |  |  | 
4 | COc1ccccc1OCCNC[C@@H](O)COc1cccc2[nH]c3ccccc3c12 [R-CAR] | 20.7 ng/mL | 48.4 ng/mL |  |  |  |  |  |  |  |  | Kd (α1-adrenoreceptor; [7]): 16 nM; β-blocking activity relative to the racemate (β-adrenoreceptor; share of the racemate's activity): approximately 1%; Kd (β-adrenoreceptor; [8]): ~45 nM
5 | Oc1ccccc1OCCNC[C@@H](O)COc1cccc2[nH]c3ccccc3c12 [R-DMC] |  |  | 6.06 ng/mL | 4.93 ng/mL | 2.82 ng/mL | 1.52 ng/mL |  |  |  |  | Plasma Concentration ([2]; patient 2, sampling time 1.0 hr, oral 25 mg racemic CAR): 2.40 ng/mL
6 | COc1cc(O)ccc1OCCNC[C@H](O)COc1cccc2[nH]c3ccccc3c12 [S-4′OHC] |  |  |  |  |  |  | 13.7 ng/mL | 16.1 ng/mL | 8.18 ng/mL | 5.29 ng/mL | 
7 | COc1ccc(O)cc1OCCNC[C@H](O)COc1cccc2[nH]c3ccccc3c12 [S-5′OHC] |  |  |  |  |  |  | 11.5 ng/mL | 14.1 ng/mL | 8.09 ng/mL | 5.28 ng/mL | 
8 | COc1ccccc1OCCNC[C@H](O)COc1cccc2[nH]c3ccccc3c12 [S-CAR, (-)-1-(9H-carbazol-4-yloxy)-3-[2-(2-methoxyphenoxy)ethylamino] propan-2-ol] | 20.3 ng/mL | 50 ng/mL |  |  |  |  |  |  |  |  | Kd (α1-adrenoreceptor; [7]): 14 nM; β-adrenoreceptor potency relative to the racemic mixture (β-adrenoreceptor; fold more potent than racemate): approximately two-fold; Kd (β-adrenoreceptor; [8]): 0.4 nM
9 | Oc1ccccc1OCCNC[C@H](O)COc1cccc2[nH]c3ccccc3c12 [S-DMC] |  | 3.27 ng/mL |  |  |  |  | 9.92 ng/mL | 8.52 ng/mL | 5.02 ng/mL | 2.73 ng/mL | 
